What all share (format): cell-based, human
The subject of data set [1] is adipose tissue-derived mesenchymal stem cells. The data set is described as follows: Survival rate of stem cells suspended in normal saline containing acetylsalicylic acid. The following applies: for Survival rate: 1.0×10^7 cells. As to the method:
After the adipose tissue-derived mesenchymal stem cells isolated in Example 1 were treated with trypsin, the trypsin treated adipose tissue-derived mesenchymal stem cells (1.0×10^7 cells) were suspended in normal saline containing acetylsalicylic acid (Sigma; A5376) at each concentration, and survival rates at 12 and 24 hours were observed. The normal saline containing acetylsalicylic acid was prepared by adding acetylsalicylic acid to normal saline at each concentration and performing sonication at 37 °C for 30 minutes.

Data set [2] shares this test system. The data set is described as follows: FACS characteristics (marker expression rate) of stem cells after suspension in normal saline containing aspirin lysine. The method, then: (§1) After the adipose tissue-derived mesenchymal stem cells isolated in Example 1 were treated with trypsin, the trypsin treated adipose tissue-derived mesenchymal stem cells (1.0×10^6 cells) were suspended in normal saline containing aspirin lysine (Shinpoong) at each concentration and cultured for 5 days, and the number of cells was measured. Then, after cold-temperature storage for 24 hours, FACS was measured, thereby confirming characteristics of the cells.

Data set [3] shares this test system. The data set is described as follows: Survival, number of cells and aggregation of stem cells suspended in normal saline containing aspirin lysine. As to the method:
as §1

[4] abbreviates: FACS, aspirin 0.1 mg/10 ml, after cold-temperature storage for 24 hours.

For the molecule `CC(=O)Oc1ccccc1C(=O)O` [acetylsalicylic acid], the Survival rate in data set [1] (12 hours, aspirin 1 mg/10 ml normal saline) turned out to be 50%; in data set [1] (12 hours, aspirin 2 mg/10 ml normal saline), 20%; in data set [1] (12 hours, aspirin 5 mg/10 ml normal saline) it was 10%; in data set [1] (24 hours, aspirin 1 mg/10 ml normal saline), 10%; in data set [1] (24 hours, aspirin 2 mg/10 ml normal saline), 10%; in data set [1] (24 hours, aspirin 5 mg/10 ml normal saline) it was 5%. Also, the Cytotoxic effect result in data set [1] (aspirin added to 10 ml of normal saline 1.0 mg or more) was “a cytotoxic effect was exhibited”.
Consider `CC(=O)Oc1ccccc1C(=O)O` [aspirin lysine], for which, in data set [2] (setting [4]), the “Expression rate CD29” value is recorded as 99.97%, the “Expression rate CD31” value was determined as 0.21%, the “Expression rate CD44” value amounted to 99.25% and the “Expression rate CD45” value was found to be 0.17%. The “Characteristics of the stem cells (FACS)” value in data set [2] (stored at a cold temperature for 24 hours after suspension in normal saline containing aspirin for 24 hours) is reported as “no influence of the concentration of aspirin”. Besides, the “Change in the number of cells” value in data set [3] (after culturing for 5 days) is recorded as “almost no change in the number of cells”. Also, in data set [3] (normal saline containing aspirin lysine at each concentration), the “Cell survival rate depending on the concentration” value is “slightly decreased, but the decrease was not significant”. Further, the Aggregation on storage entry in data set [3] (storing the stem cells in normal saline containing aspirin) is recorded as “aggregation may be prevented without causing changes in the characteristics of cells”.

(Values after patent US9433645B2, “Method and composition for preventing stem cell disruption and aggregation” (R BIO CO., LTD., priority 2012, dated 2016).)
